How the values were obtained:
miR-210 = assay: RT-qPCR of miR-210 (mature, pri-, pre-) in MDA-MB-231 cells under hypoxic conditions; format: cell-based; conditions: 200 nM, hypoxic MDA-MB-231 cells
Procedure: MDA-MB-231 cells were cultured in RPMI 1640 medium supplemented with 10% FBS (Sigma), 1× Glutagro (Corning), and 1× Pen/Strep (MP Biomedicals, LLC) (growth medium). Cells cultured in normoxia were maintained at 37° C. in ambient atmosphere (˜21% O2) with 5% CO2. Cells cultured in hypoxia were maintained at 37° C., <1% O2 in a nitrogen filled hypoxic chamber (Billups-Rothenberg, Inc.), and 5% CO2.
Approximately 200-600 ng of RNA was used in subsequent reverse transcription reactions using a miScript II RT Kit (Qiagen) or a qScript cDNA Synthesis Kit (Quanta Biosciences) per the manufacturers' recommended protocols. Primers for RT-qPCR were purchased from Integrated DNA Technologies (IDT) or Eurofins (Table S1) and used without further purification. RT-qPCR samples were prepared using Power SYBR Green PCR Master Mix (Applied Biosystems) and completed by using a 7900HT Fast Real Time PCR System (Applied Biosystems). Expression levels of RNA were normalized to U6 small nuclear RNA, GAPDH mRNA, or 18S rRNA.

pre-miR-210 RNA = assay: In solution fluorescent binding assay; conditions: up to 5000 nM pre-miR-210 added
Procedure: Dissociation constants for the binding of pre-miR-210 RNA to Hoechst 33342 and Targapremir-210 were determined using an in solution, fluorescent binding assay. RNA was folded in 1× Binding Buffer (8 mM Na2HPO4, 190 mM NaCl, 1 mM EDTA, and 40 μg/mL BSA) at 60° C. for 5 min and then allowed to cool to room temperature for 10 min. Hoechst 33342 or Targapremir-210 was added to a final concentration of 500 nM. Next, 1:2 serial dilutions were performed in 1× Binding Buffer supplemented with 500 nM of Hoechst 33342 or Targapremir-210. Solutions were incubated for 30 min and then transferred to Corning non-binding surface 96-well black plates. Fluorescence intensity was then measured on a Bio-Tek FLX-800 plate reader. Change in fluorescence intensity was fit as a function of RNA concentration with equation 1: […]
where I and I0 are the observed fluorescence intensity in the presence and absence of RNA, respectively, Δε is the difference between the fluorescence intensity in the absence and in the presence of infinite RNA concentration, [FL]0 and [RNA]0 are the concentrations of compound (Hoechst 33342 or Targapremir-210) and RNA, respectively, and Kt is the dissociation constant.

For `CCOc1ccc(-c2nc3ccc(-c4nc5ccc(N6CCN(C)CC6)cc5[nH]4)cc3[nH]2)cc1` [Hoechst 33342, reference compound], the “mature miR-210 levels” value (miR-210) was “no statistically significant effect” and the “affinity for pre-miR-210” value (pre-miR-210 RNA) was “No saturable binding was observed”.

— patent publication US20230041228A1, “Small Molecule Inhibition of Micro-RNA-210 Reprograms an Oncogenic Hypoxic Circuit” (University of Florida Research Foundation, Incorporated, priority 2017, published 2023)
